Experimental data published in US4837239A, “Cardiotonic phosphodiesterase inhibitors complexed with water soluble vitamins” (Syntex (U.S.A.) Inc., priority 1986, dated 1989).
Converted amounts (≈) assume the structure as drawn.

Experiments:
Assay type in all cases: physicochemical
[1] = Electrochemical titration of excess ascorbic acid with the drug (FIGS. 4a and 4b); conditions: titration of excess ascorbic acid with hydrogen sulfate salt, in solution
Text: (§1) The present inventors have discovered that the compounds of Formula (I) form water-soluble complexes with water-soluble vitamins such as ascorbic acid, nicotinamide thiamine and pyridoxine. The phenomenon of complex formation can be confirmed by phase solubility experiments (FIGS. 1 and 2), and by spectral shifts and changes in electrochemical responses of the vitamins in the presence of these compounds (FIGS. 4a and 4b). For example, FIGS. 4a and 4b show the results of a titration of excess ascorbic acid with the hydrogen sulfate salt of N-cyclohexyl-N-methyl-4-(2-oxo-1,2,3,5-tetrahydroimidazo-[2,1-b]quinazolin-7-yl)oxybutyramide. It is hypothesized that the relatively planar tricyclic structure of the compound and the presence of non-bonding electrons on ring heteroatoms renders the compound capable of charge donation to suitable acceptors. In addition, the compound may also function as a charge acceptor due to the presence of a formal positive charge on a ring nitrogen at low pH (i.e., due to the presence of the planar cyclic cationic portion of the compound). Thus, the interaction with the water-soluble vitamin may be defined in terms of the existence of a charge transfer complex, resulting in enhanced water-solubility. […] The decrease in current is due to a lower diffusion coefficient of the complex.

[2] = Water solubility after complexation with ascorbic acid and lyophilization
Protocol: (§2) The improvement in solubility in the presence of water-solublevitamins is specifically illustrated by FIGS. 1 and 2. […] The solubility is still further enhanced by the lyophilization process of the present invention. For example, if the lyophilization procedure described below is followed, N-cyclohexyl-N-methyl-4-(2-oxo-1,2,3,5-tetrahydroimidazo-[2,1-b]quinazolin-7-yl)oxybutyramide is water-soluble to the extent of about 5,000 μg/ml at pH2 using 10% ascorbic acid (See FIG. 5).
6.5 grams of the sulfate salt of N-cyclohexyl-N-methyl-4-(2-oxo-1,2,3,5-tetrahydroimidazo[2,1-b]quinazolin- 7-yl)oxyburyamide were dissolved, along with 100 grams of ascorbic acid, 500 ml of tert-butyl alcohol, sufficient sulfuric acid to adjust the pH to 2.0, and sufficient water to bring the volume to 1 liter. The solution was stirred at room temperature for about 10 minutes and filtered with a 0.22 micron Milipore™ cellulose filter. 5 Milliliters of the solution were then dispensed into a 10 ml vial for lyophilization. In the lyophilization procedure, the condenser temperature was initially set to give a shelf temperature of -60° C., and the pressure was initially atmospheric. After the product had frozen, the pressure was gradually dropped to 10 milliTorr, and the vacuum was held for about a day. […]

[3] = Solid state stability in lyophilized powders at accelerated temperature and various states of humidity; conditions: for Appearance (Color): after 7 days
Protocol: Accordingly, in order to maximize the stability of such a compound for parenteral administration therapy, the present inventors have developed a lyophilization procedure. The lyophilization substantially removes water: the primary nucleophile responsible for the degradative hydrolysis of the compound in solution.
^a Made from 2 mL of tBuOH/AA/H2 O (50/10/40) with pH = 2.0 and
N--cyclohexylN--methyl4-(2-oxo-1,2,3,5-tetrahydroimidazo-2,1-bquinazolin-
-yl)oxybutyramide 130 mL
^b Capped means: not stored in the desiccator with the vial sealed.
47% RH capped and 47% RH holes mean: stored in a 47% relatively humidity
desiccator with the vial capped or covered with aluminum foil with 4 hole
in the foil respectively.
6.5 grams of the sulfate salt of N-cyclohexyl-N-methyl-4-(2-oxo-1,2,3,5-tetrahydroimidazo[2,1-b]quinazolin- 7-yl)oxyburyamide were dissolved, along with 100 grams of ascorbic acid, 500 ml of tert-butyl alcohol, sufficient sulfuric acid to adjust the pH to 2.0, and sufficient water to bring the volume to 1 liter. The solution was stirred at room temperature for about 10 minutes and filtered with a 0.22 micron Milipore™ cellulose filter. 5 Milliliters of the solution were then dispensed into a 10 ml vial for lyophilization. In the lyophilization procedure, the condenser temperature was initially set to give a shelf temperature of -60° C., and the pressure was initially atmospheric. After the product had frozen, the pressure was gradually dropped to 10 milliTorr, and the vacuum was held for about a day. Still under vacuum, the shelf temperature was slowly raised by incrementally increasing the temperature to the following values for about 6 hours at each value: -40° C., -20° C.; -10° C.; 0° C.; and 15°-25° C. During this lyophilization process, all the butanol and water were removed. The final lyophilized powder comprised 32.5 milligrams of N-cyclohexyl-N-methyl-4-(2-oxo-1,2,3,5-tetrahydroimidazo-[2,1-b]quinazolin-7-yl)oxybutyramide sulfate salt and 500 milligrams of ascorbic acid, some residual water (4% w/w) and tert-butyl alcohol (3% w/w) per vial.

[4] = Solution-phase stability / shelf life (kinetic studies)
Text: A significant advantage of the lyophilization procedure of the present invention is that it provides for an extended shelf life as compared to that of the class of ocyalkylamides or even their vitamin complexes in solution. For example, the shelf life of a solution of the ascorbic acid complex of N-cyclohexyl-N-methyl-4-(2-oxo-1,2,3,5-tetrahydro-imidazo-[2,1-b]quinazolin-7-yl) oxybutyramide is only about 5 days. The lyophilized product prepared according to the formulation method of the present invention can be expected to permit a shelf life of at least two years.
The reason for the generally brief shelf lives in solution is that the class of oxyalkylamides has limited solution-phase stability. […] At pH 2, at which the compound is formulated, shelf life (T90) is less than a week. In a concentrated form in neat dimethylacetamide, polyethylene glycol or the like, the T90 is only about three weeks.

[5] = Water solubility (phase solubility experiments) with and without water-soluble vitamin; conditions: for solubility: pH 2, read-out: water solubility (free base equivalent)
Text: as §1, §2

[6] = 40 °C., 47% RH capped (first line)
[7] = 40 °C., 47% RH capped (second line)

In the case of `CN(C(=O)CCCOc1ccc2c(c1)CN1CC(=O)NC1=N2)C1CCCCC1` [N-cyclohexyl-N-methyl-4-(2-oxo-1,2,3,5-tetrahydroimidazo-[2,1-b]quinazolin-7-yl)oxybutyramide], the “electrochemical response of ascorbic acid” value [1] is reported as “a shift in the peak potential and a reduction of the peak current of ascorbic acid”, the “solubility” value ([2]; complexation with a water soluble vitamin and lyophilization (FIG. 5)) is reported as “enhancement of solubility” and the solubility ([2]; pH 2, pH2, 10% ascorbic acid, lyophilized (FIG. 5), read-out: water solubility after lyophilization procedure) is reported as ~5000 µg/mL (≈ 13 mM). The “% Remaining, 7 days” value ([3]; 5 °C., Capped) was 99.2%, the “Appearance (Color)” value ([3]; 5 °C., Capped) was “White” and the “% Remaining, 7 days” value ([3]; 25 °C., 47% RH capped) was 100%. For the same molecule, the “% Remaining, 36 days” value ([3]; 25 °C., 47% RH capped) was 100%, the “Appearance (Color)” value ([3]; 25 °C., 47% RH capped) was “White” and the “% Remaining, 7 days” value ([3]; 25 °C., Capped) was 100%. For the same molecule, the “% Remaining, 36 days” value ([3]; 25 °C., Capped) was 99.7%, the “Appearance (Color)” value ([3]; 25 °C., Capped) was “White” and the “% Remaining, 7 days” value [3, 6] was 100%. The “% Remaining, 36 days” value [3, 6] was 96.7%, the “Appearance (Color)” value [3, 6] was “Light yellow” and the “% Remaining, 5 days” value ([3]; 40 °C., 47% RH capped (second line), 5 days) was 99.2%. The “% Remaining, 7 days” value [3, 7] was 99.2%, the “% Remaining, 36 days” value [3, 7] was 94.5% and the “Appearance (Color)” value [3, 7] was “Light yellow”. The “% Remaining, 7 days” value ([3]; 40 °C., Capped) was 100%, the “% Remaining, 36 days” value ([3]; 40 °C., Capped) was 94.4% and the “Appearance (Color)” value ([3]; 40 °C., Capped) was “Light yellow”. For the same molecule, the “% Remaining, 7 days” value ([3]; RT, 47% RH holes) was 100%, the “% Remaining, 36 days” value ([3]; RT, 47% RH holes) was 100% and the “Appearance (Color)” value ([3]; RT, 47% RH holes) was “White”. For the same molecule, the T90 ([4]; concentrated form in neat dimethylacetamide, polyethylene glycol or the like) was “about three”, the “pH of maximum stability” value ([4]; in solution) was ~6 and the “estimation shelf life in solution” value ([4]; in solution, about pH 6) was “six”. The “shelf life (T90)” value ([4]; in solution, pH 2) was “less than a week”, the “degradation catalysis” value ([4]; kinetic studies in solution) was “both acid and base catalyzed” and the “water solubility” value ([5]; in the presence of water soluble vitamins, and ethanol and propylene glycol (FIG. 2)) was “improved water solubility”. For the same molecule, the “water solubility” value ([5]; in the presence of water-soluble vitamins (FIG. 1)) was “improved water solubility”, the solubility ([5]; pH2, absence of water-soluble vitamin) was ~120 µg/mL and the solubility ([5]; water with 10% ascorbic acid, pH2, in the presence of 10% (about 0.6M) ascorbic acid) was ~420 µg/mL.
